In PMC3576019 (The Journal of steroid biochemistry and molecular biology, 2010):

Key:
Progesterone Receptor = molecular target: T1, Progesterone Receptor (Homo sapiens, UniProt P06401); assay: Alkaline phosphatase assay in T47D cells; format: cell-based; details: 20 h, progesterone at 10nM
T1 sequence (P06401 1-933): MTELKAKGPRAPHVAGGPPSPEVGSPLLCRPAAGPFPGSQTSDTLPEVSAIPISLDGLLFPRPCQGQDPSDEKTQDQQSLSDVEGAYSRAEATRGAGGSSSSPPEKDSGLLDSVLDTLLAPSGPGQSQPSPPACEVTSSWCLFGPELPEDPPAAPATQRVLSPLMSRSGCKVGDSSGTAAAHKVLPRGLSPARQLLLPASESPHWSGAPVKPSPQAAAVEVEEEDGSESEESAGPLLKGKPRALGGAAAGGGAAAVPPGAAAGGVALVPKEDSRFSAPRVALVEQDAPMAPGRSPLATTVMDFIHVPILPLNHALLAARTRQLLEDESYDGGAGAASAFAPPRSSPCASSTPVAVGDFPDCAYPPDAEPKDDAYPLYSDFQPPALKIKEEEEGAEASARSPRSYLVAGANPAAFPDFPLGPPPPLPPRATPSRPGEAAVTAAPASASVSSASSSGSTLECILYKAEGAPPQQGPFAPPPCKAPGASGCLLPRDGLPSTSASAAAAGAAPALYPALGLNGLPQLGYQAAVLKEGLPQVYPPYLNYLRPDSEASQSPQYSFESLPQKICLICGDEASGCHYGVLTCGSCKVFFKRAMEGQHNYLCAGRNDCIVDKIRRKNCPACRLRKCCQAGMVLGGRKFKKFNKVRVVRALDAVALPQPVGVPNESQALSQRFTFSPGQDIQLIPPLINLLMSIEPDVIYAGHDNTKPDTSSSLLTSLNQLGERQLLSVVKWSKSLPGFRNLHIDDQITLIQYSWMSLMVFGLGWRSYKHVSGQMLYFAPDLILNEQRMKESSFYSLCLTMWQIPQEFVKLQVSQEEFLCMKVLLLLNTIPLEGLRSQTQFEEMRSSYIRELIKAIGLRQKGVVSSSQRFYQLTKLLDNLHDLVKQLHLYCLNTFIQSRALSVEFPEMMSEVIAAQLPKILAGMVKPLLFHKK

rabbit endometrium = assay: McPhail assay in estrogen-primed immature rabbits; format: in vivo; details: progesterone alone (method: MPA 0.15mg/kg/day)
[1] = molecular target: porcine uterine progesterone receptor; details: read-out: IC50 for the porcine uterine progesterone receptor; ref [17]; cited from earlier work

Compound: CC(=O)[C@H]1CC[C@H]2[C@@H]3CCC4=CC(=O)CC[C@]4(C)[C@H]3CC[C@]12C [Progesterone]
- induction of alkaline phosphatase activity (Progesterone Receptor): significantly increased alkaline phosphatase activity
- progestational histologic changes (McPhail Index), positive control (rabbit endometrium): maximal progestational histologic changes were noted

Compound: CC(=O)O[C@H]1[C@@H](O)C=C2C=C3OC(=O)C(C)=C3C[C@]2(C)[C@H]1C [PF1092A]
- IC50 [1]: 30 nM
